Results reported in patent US20210283176A1, “CALCIUM BINDER FOR USE IN PREVENTING STILLBIRTH” (Nutreco IP Assets B.V, priority 2017, published 2021).

System: sows
Conditions: phosphoric acid 0.01 mol/liter (1 g/L), 25 sows, control 1.6 (24 sows)
Experimental: A calcium binder (phosphoric acid, PhA)) was added in a concentration of 0.01 mol/liter (corresponding to 1 g/L of phosphoric acid). The diets fed to the sows were the same.

Structure (SMILES): O=P(O)(O)O [PhA, phosphoric acid]
- Stillborn piglets, #: 1.1
